Assays:
[1] = Drug release rate from dimethylpolysiloxane rubber compositions in calcium-free Ringers solution; format: physicochemical; details: footnote of Table II; Calc. on basis of hyaluronidase inhibition
Protocol: An appropriate sample of a dimethylpolysiloxane rubber composition in which is incorporated the test compound is placed in a suitable amount of calcium-free Ringers solution, and the sample and solution are incubated together at 37° C. for a period of time (e.g. 24 hours). […] The equivalent amount of test compound in the removed solution is calculated from standard inhibition curves in which hyaluronidase inhibition is plotted against concentration of the test compound. The calculated result are expressed as micrograms of test compound released per day.
The above test may be repeated for an extended period of time, for example, for 1 day to 360 days, or more, by adding fresh calcium-free Ringer's solution after each removal of the solution for assay.
The sample weight was 4 mg. and the amount of added solution was 1 ml.

[2] = tested on: Dutch Belted virgin rabbits; test: Antifertility effects in vivo by intrauterine administration; design: species or system rabbit; details: 40-mg dimethylpolysiloxane rubber rod, 10% W/W
Protocol: Dutch Belted virgin rabbits, each weighing 3-4 pounds, are randomly selected and anesthetized with sodium pentobarbital (50 μg./ml.) administered by IV drip. The uterus of each animal is exposed and a 40-mg. sample in the shape of a rod (3 mm. in diameter) of dimethylpolysiloxane rubber (as prepared in Example 3) containing 10% W/W of sodium sulfopropyl n-dodecanoate is sutured into the right uterine horn at a random location in between the cervix and the utero-tubal junction. The left horn is left untreated to serve as control. The rubber rod is placed into the uterine horn by passing a curved needle through it and through the uterine wall pulling the rod into the uterine lumen. The entry is closed by suturing. Animals (blank) are similarly treated using unmedicated dimethylpolysiloxane rubber to serve as a second group of controls. The animals are given 300,000 units of Duracillin® per day (in four doses) and are allowed to recover for 14 days. Each animal is bred to a male of proven fertility and is immediately given a dose (IV) of appropoximately 100 units of human chorionic gonadotropin (HCG) to facilitate ovulation. Fourteen days after breeding, the animal are sacrificed by cervical dislocation and the uterine horns are examined for implanted embryos. The number of embryos per uterine horn are recorded.

[3] = tested on: virgin dutch belted female rabbit; test: Antifertility effects in vivo by intravaginal administration; details: 1 ml of equal volumes Ky-jelly and 10 mg./ml. solution, before breeding, 6 animals
Protocol: Equal volumes of Ky-jelly® and either Ca^++ free Ringer's solution or a 10 mg./ml. solution of the compound to be tested in Ca^++ free Ringer's solution are well mixed. One milliliter of this is placed into the vagina of a virgin dutch belted female rabbit using a syringe. The female is then immediately bred to a fertile buck. The female is injected I.V. with 100 units of human chorionic gonadotrophin to assure a good ovulation rate.
After approximately 14 days the females are sacrificed by cervical dislocation and the genital system examined for the number of embryos.

cumulus oophorus = test: Removal of cumulus oophorus from ova by hyaluronidase, in vitro; format: cell-based, rabbit; details: 10 μl of 10 mg./ml. compound solution in 1 ml calcium-free Ringer's solution, 37° C.
Protocol: In the absence of sodium sulfopropyl dodecanoate, complete removal of the cumulus oophorus is observed.
Female rabbits are given 100 units of pregnant mares serum (PMS), IM, and 134 units of HCG, IV. After 13 hours the animals are sacrificed, and the ovaries are excised. The ovaries are submerged in calcium-free Ringer's solution containing 20% rabbit serum which had been heated to 55° C. for 20 minutes. Ova with cumulus intact are removed and placed in calcium-free Ringer's solution for incubation at 37° C. Hyaluronidase (10 μl.) of a 10 mg./ml. solution in calciumfree Ringer's solution is added to 20 ova in 1 ml. of the incubation medium. To 10 ova in the same medium is added 10 μl. of a solution of sodium sulfopropyl n-dodecanoate (10 mg./ml.) in calcium-free Ringer's solution. To 10 other ova in the same media is added 10 μl. of calcium-free Ringer's solution as control. The mixtures are incubated at 37° C., and the cumulus oophorus is examined at 15 minute intervals with an American Optical stereomicroscope. In the absence of sodium sulfopropyl n-dodecanoate, the cumulus oophorus is completely removed.

acrosin = acrosin (Homo sapiens, UniProt P10323); test: Acrosin inhibition in vitro; format: biochemical; details: statement in words
acrosin, sequence (P10323 20-421, species assumed): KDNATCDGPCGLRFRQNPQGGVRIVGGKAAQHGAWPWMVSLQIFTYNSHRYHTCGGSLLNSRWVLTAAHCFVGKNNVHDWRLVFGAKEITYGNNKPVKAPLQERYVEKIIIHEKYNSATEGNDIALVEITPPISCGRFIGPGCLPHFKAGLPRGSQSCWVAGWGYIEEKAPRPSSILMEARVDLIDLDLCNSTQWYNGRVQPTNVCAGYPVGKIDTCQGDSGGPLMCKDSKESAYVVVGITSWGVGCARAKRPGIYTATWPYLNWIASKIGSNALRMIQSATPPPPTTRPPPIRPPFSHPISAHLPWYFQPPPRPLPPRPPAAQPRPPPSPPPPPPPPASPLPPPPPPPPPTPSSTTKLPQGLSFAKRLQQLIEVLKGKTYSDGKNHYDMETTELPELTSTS

CCCCCCCCCCCC(=O)OCCCS(=O)(=O)O.[Na] [CH3 (CH2)10, n=3, sodium sulfopropyl dodecanoate]
Release rate from dimethylpolysiloxane, in vitro [1]: 1 to 3 mg/day | Total No. of embryos ([2]; in right uterine horn, 11 horns, 14 days after breeding): 1 | [drawing 14] (number of embryos per uterine horn) ([2]; in uterine horn, p < .001 compared to untreated and to blank): 0.09 | Avg. No. of Embryos per animal [3]: 0 | No. of embryos ([3]; approximately 14 days): 0 | state of the cumulus oophorus of rabbit ova incubated with hyaluronidase (cumulus oophorus): the cumulus oophorus remain substantially intact | state of the cumulus oophorus of rabbit ova incubated with hyaluronidase (cumulus oophorus; listed as sodium sulfopropyl n-dodecanoate): the cumulus remains substantially intact

CCCC/C=C\CCCCCCCC(=O)OCCCS(=O)(=O)O.[Na] [cis- CH3 (CH2)3 CHCH(CH2)7, n=3, sodium sulfopropyl myristoleate]
anti-acrosin activity (inhibition in vitro of the action of acrosin) (acrosin): anti-acrosin activity

CCCC/C=C/CCCCCCCC(=O)OCCCS(=O)(=O)O [trans- CH3 (CH2)3 CHCH(CH2) 7, n=3, sodium sulfopropyl myristelaidate]
anti-acrosin activity (inhibition in vitro of the action of acrosin) (acrosin): anti-acrosin activity

sodium sulfopropyl 15-methylheptadecanoate
anti-acrosin activity (inhibition in vitro of the action of acrosin) (acrosin): anti-acrosin activity

sodium sulfopropyl 16-methylheptadecanoate
anti-acrosin activity (inhibition in vitro of the action of acrosin) (acrosin): anti-acrosin activity
